According to patent US11040981B2, “Pyrrolotriazine compounds and methods of inhibiting TAM kinases” (Syros Pharmaceuticals, Inc., priority 2017, dated 2021):

Experiments:
[1] = target: T1, MERTK (Homo sapiens, UniProt Q12866); assay: TR-FRET kinase activity assay, MERTK; type: biochemical; conditions: for IC50: TR-FRET activity assay, ATP at Km, 60 minutes, read-out: Mer IC50; for FLT3/Mer ratio (FLT3 IC50/Mer IC50): ratio calculated as FLT3 IC50/Mer IC50
T1 sequence (Q12866 21-999): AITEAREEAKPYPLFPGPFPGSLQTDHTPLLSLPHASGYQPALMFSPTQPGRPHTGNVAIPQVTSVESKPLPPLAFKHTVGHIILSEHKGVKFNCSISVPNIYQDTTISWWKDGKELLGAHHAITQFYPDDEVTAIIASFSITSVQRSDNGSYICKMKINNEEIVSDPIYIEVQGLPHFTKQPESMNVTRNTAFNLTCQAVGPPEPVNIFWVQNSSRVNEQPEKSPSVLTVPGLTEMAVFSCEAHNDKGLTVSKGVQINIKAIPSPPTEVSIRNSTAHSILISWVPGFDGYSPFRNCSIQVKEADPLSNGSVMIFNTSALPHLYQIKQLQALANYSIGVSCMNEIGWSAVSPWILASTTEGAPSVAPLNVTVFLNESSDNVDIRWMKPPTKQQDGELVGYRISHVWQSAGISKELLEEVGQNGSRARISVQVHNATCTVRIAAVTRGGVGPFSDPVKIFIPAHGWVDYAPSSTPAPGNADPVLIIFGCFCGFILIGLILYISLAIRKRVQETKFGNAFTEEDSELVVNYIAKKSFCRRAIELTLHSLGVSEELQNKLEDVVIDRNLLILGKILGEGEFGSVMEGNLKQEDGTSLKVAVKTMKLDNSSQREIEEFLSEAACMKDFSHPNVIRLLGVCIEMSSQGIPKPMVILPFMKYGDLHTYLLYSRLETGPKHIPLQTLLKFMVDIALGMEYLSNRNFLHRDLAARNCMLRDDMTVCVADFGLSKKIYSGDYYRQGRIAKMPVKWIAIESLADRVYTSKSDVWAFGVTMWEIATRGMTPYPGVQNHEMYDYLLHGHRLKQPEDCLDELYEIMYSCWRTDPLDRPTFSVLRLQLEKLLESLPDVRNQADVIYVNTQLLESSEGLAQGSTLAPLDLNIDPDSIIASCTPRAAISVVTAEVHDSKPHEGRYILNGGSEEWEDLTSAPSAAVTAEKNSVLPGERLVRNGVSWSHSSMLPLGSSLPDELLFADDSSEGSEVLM
In short: (§1)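 Enzyme + labelled peptide + cpd premixed; ATP at per-enzyme Km starts rxn. 60 min RT, HEPES pH 7.5/MgCl2/EGTA/Brij 35/DTT buffer. Stop 12.5 mM EDTA, Eu phospho-Ab 30 min dark, TR-FRET read → IC50.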

[2] = target: T2, TYRO3 (Homo sapiens, UniProt Q06418); assay: TR-FRET kinase activity assay, TYRO3; type: biochemical; conditions: ATP at Km, 60 minutes
T2 sequence (Q06418 41-890): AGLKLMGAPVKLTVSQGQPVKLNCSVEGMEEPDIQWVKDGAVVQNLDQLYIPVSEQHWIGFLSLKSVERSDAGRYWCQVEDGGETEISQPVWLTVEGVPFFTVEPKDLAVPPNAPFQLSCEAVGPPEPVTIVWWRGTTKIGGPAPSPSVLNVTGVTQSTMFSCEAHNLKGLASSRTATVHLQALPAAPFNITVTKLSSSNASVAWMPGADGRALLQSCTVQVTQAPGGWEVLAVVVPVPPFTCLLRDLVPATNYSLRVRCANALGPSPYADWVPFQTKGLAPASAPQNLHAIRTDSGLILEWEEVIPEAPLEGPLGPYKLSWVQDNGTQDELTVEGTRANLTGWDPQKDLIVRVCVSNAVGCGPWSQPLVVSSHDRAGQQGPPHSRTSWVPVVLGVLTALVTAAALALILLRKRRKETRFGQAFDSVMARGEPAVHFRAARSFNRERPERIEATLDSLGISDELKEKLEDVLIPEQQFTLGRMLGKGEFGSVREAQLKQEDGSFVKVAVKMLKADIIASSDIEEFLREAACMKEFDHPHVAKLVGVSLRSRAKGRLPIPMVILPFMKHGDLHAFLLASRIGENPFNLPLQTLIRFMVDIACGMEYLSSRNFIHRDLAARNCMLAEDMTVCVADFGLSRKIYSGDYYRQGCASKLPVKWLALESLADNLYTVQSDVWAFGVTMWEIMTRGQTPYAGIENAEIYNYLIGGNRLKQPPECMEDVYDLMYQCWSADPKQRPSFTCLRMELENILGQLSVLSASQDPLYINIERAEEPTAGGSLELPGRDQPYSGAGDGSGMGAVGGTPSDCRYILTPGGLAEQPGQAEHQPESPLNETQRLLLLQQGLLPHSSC
In short: as §1

| SMILES | IC50 [1] | FLT3/Mer ratio (FLT3 IC50/Mer IC50) [1] | IC50 [2] |
| --- | --- | --- | --- |
| COC[C@H](C)Nc1ncc2c(-c3cnn(C4COC4)c3)cc(C3CCC(=O)NC3)n2n1 (stereo partly drawn) [Compound 526] | ≤ 100 nM | ++ (“++” represents a ratio of between 10 and 100) | ≤ 100 nM |
| C[C@@H](Nc1ncc2c(-c3cnn(C4COC4)c3)cc([C@H]3CC[C@H](O)CC3)n2n1)C(F)(F)F [Compound 527] | ≤ 100 nM | +++ (“+++” represents a ratio of >100) | ≤ 100 nM |
| COC[C@H](C)Nc1ncc2c(-c3ccc([S@](C)(=N)=O)nc3)cc([C@H]3CC[C@H](O)CC3)n2n1 [Compound 532] | ≤ 100 nM | +++ (“+++” represents a ratio of >100) | ≤ 100 nM |
| COC[C@H](C)Nc1ncc2c(-c3ccc([S@@](C)(=N)=O)nc3)cc([C@H]3CC[C@H](O)CC3)n2n1 [Compound 533] | ≤ 100 nM | +++ (“+++” represents a ratio of >100) | ≤ 100 nM |
| COC[C@H](C)Nc1ncc2c(-c3ccnc(N4CCOC(C(C)(C)O)C4)c3)cc([C@H]3CC[C@H](O)CC3)n2n1 (stereo partly drawn) [Compound 534] | ≤ 100 nM | +++ (“+++” represents a ratio of >100) | ≤ 100 nM |
| C[C@H](Nc1ncc2c(-c3cnn(C(C)(C)C(=O)N4CCOCC4)c3)cc([C@H]3CC[C@H](O)CC3)n2n1)C(F)(F)F [Compound 537] | ≤ 100 nM | +++ (“+++” represents a ratio of >100) | ≤ 100 nM |
| COCC(C)Nc1ncc2c(-c3ccc4cc[nH]c4c3)cc(C3CCC(O)CC3)n2n1 (stereo not drawn) [Compound 538] | ≤ 100 nM | +++ (“+++” represents a ratio of >100) | ≤ 100 nM |
| COCC(C)Nc1ncc2c(-c3ccc4[nH]ccc4c3)cc(C3CCC(O)CC3)n2n1 (stereo not drawn) [Compound 539] | ≤ 100 nM | +++ (“+++” represents a ratio of >100) | ≤ 100 nM |
| C[C@@H](CC(F)(F)F)Nc1ncc2c(-c3ccc([S@](C)(=N)=O)nc3)cc([C@H]3CC[C@H](O)CC3)n2n1 [Compound 540] | ≤ 100 nM | +++ (“+++” represents a ratio of >100) | ≤ 100 nM |
| C[C@@H](CC(F)(F)F)Nc1ncc2c(-c3ccc([S@@](C)(=N)=O)nc3)cc([C@H]3CC[C@H](O)CC3)n2n1 [Compound 541] | ≤ 100 nM | ++ (“++” represents a ratio of between 10 and 100) | ≤ 100 nM |
| CC(Nc1ncc2c(-c3cnn(C4COC4)c3)cc(C3CCC(O)CC3)n2n1)c1ccccn1 (stereo not drawn) [Compound 544] | 100 to 1000 nM | ++ (“++” represents a ratio of between 10 and 100) | ≤ 100 nM |
| COC[C@H](C)Nc1ncc2c(-c3ccnc(N4CCOCC4)c3)cc([C@H]3CC[C@@H](O)CC3)n2n1 [Compound 546] | ≤ 100 nM | +++ (“+++” represents a ratio of >100) | ≤ 100 nM |
| COC[C@H](C)Nc1ncc2c(-c3cnn(C(C)(C)C(=O)N4CCOCC4)c3)cc([C@H]3CC[C@@H](O)CC3)n2n1 [Compound 547] | ≤ 100 nM | +++ (“+++” represents a ratio of >100) | ≤ 100 nM |
| COC[C@H](C)Nc1ncc2c(-c3ccnc(N4CCOCC4)c3)cc([C@H]3CC[C@@](C)(O)CC3)n2n1 [Compound 548] | ≤ 100 nM | +++ (“+++” represents a ratio of >100) | ≤ 100 nM |
| COC[C@H](C)Nc1ncc2c(-c3ccnc(N4CCOCC4)c3)cc([C@H]3CC[C@](C)(O)CC3)n2n1 [Compound 549] | ≤ 100 nM | +++ (“+++” represents a ratio of >100) | ≤ 100 nM |
| COCC(C)Nc1ncc2c(-c3ccc4ocnc4c3)cc(C3CCC(O)CC3)n2n1 (stereo not drawn) [Compound 550] | ≤ 100 nM | +++ (“+++” represents a ratio of >100) | ≤ 100 nM |
| COCC(C)Nc1ncc2c(-c3cccc(-c4nnc(C)o4)c3)cc(C3CCC(O)CC3)n2n1 (stereo not drawn) [Compound 551] | ≤ 100 nM | +++ (“+++” represents a ratio of >100) | ≤ 100 nM |
| COCC(C)Nc1ncc2c(-c3ccc4ncoc4c3)cc(C3CCC(O)CC3)n2n1 (stereo not drawn) [Compound 552] | ≤ 100 nM | +++ (“+++” represents a ratio of >100) | ≤ 100 nM |
| COCC(C)Nc1ncc2c(-c3ccc4[nH]cnc4c3)cc(C3CCC(O)CC3)n2n1 (stereo not drawn) [Compound 553] | ≤ 100 nM | +++ (“+++” represents a ratio of >100) | ≤ 100 nM |
| COC[C@H](C)Nc1ncc2c(-c3cnn(C(C)(C)C(=O)N4CC[C@H](O)C4)c3)cc([C@H]3CC[C@H](O)CC3)n2n1 [Compound 554] | ≤ 100 nM | +++ (“+++” represents a ratio of >100) | ≤ 100 nM |
| COC[C@H](C)Nc1ncc2c(-c3cnn(C(C)(C)C(=O)N4CC[C@@H](O)C4)c3)cc([C@H]3CC[C@H](O)CC3)n2n1 [Compound 555] | ≤ 100 nM | +++ (“+++” represents a ratio of >100) | ≤ 100 nM |
| COC[C@H](C)Nc1ncc2c(-c3cnn(C(C)(C)C(=O)N4CCOC(C(C)(C)O)C4)c3)cc([C@H]3CC[C@H](O)CC3)n2n1 (stereo partly drawn) [Compound 556] | ≤ 100 nM | +++ (“+++” represents a ratio of >100) | ≤ 100 nM |
| CC(C)(O)C1CN(c2cc(-c3cc([C@H]4CC[C@H](O)CC4)n4nc(NCCOC(F)F)ncc34)ccn2)CCO1 (stereo partly drawn) [Compound 557] | ≤ 100 nM | +++ (“+++” represents a ratio of >100) | ≤ 100 nM |
| COC[C@H](C)Nc1ncc2c(-c3ccnc(N4CCO[C@H](C(C)(C)O)C4)c3)cc([C@H]3CC[C@H](O)CC3)n2n1 [Compound 558] | ≤ 100 nM | +++ (“+++” represents a ratio of >100) | ≤ 100 nM |
